Laboratory results from patent publication US9078444B2, “Isothiazoline derivatives as insecticidal compounds” (Syngenta Participations AG, priority 2011, dated 2015).

Legend:
Assay type in all cases: in vivo
Plutella xylostella = Plutella xylostella (diamond back moth) artificial diet test; settings: 144 h, 200 ppm (concentration in well 18 ppm), L2 larvae, larval mortality and growth regulation after 6 days
Protocol: (§1) Plutella xylostella (Diamond Back Moth): 24-well microtiter plate (MTP) with artificial diet was treated with test solutions at an application rate of 200 ppm (concentration in well 18 ppm) by pipetting. After drying, the MTPs were infested with L2 larvae (7-12 per well). After an incubation period of 6 days, samples were checked for larval mortality and growth regulation.

Spodoptera littoralis = Spodoptera littoralis (Egyptian cotton leafworm) cotton leaf disc test; settings: foliar, 72 h, 200 ppm sprayed on cotton leaf discs, mortality, feeding behavior, growth regulation 3 days after treatment
Protocol: Spodoptera littoralis (Egyptian Cotton Leafworm): Cotton leaf discs were placed on agar in a 24-well microtiter plate and sprayed with test solutions at an application rate of 200 ppm. After drying, the leaf discs were infested with […]. The samples were checked for mortality, feeding behavior, and growth regulation 3 days after treatment (DAT).

Diabrotica balteata = Diabrotica balteata (corn root worm) artificial diet test; settings: 120 h, 200 ppm (concentration in well 18 ppm), L2 larvae, larval mortality and growth regulation after 5 days
Protocol: as §1, with “Diabrotica balteata (Corn Root Worm): A” for “Plutella xylostella (Diamond Back Moth):”, “(6-10” for “(7-12”, “5” for “6”

Tetranychus urticae = Tetranychus urticae (two-spotted spider mite) bean leaf disc test; settings: foliar, 192 h, 200 ppm sprayed on bean leaf discs, mixed ages, egg, larval and adult mortality 8 days later
Source text: Tetranychus urticae (Two-Spotted Spider Mite): Bean leaf discs on agar in 24-well microtiter plates were sprayed with test solutions at an application rate of 200 ppm. After drying, the leaf discs are infested with mite populations of mixed ages. 8 days later, discs are checked for egg mortality, larval mortality, and adult mortality.

Heliothis virescens = Heliothis virescens (tobacco budworm) egg test on artificial diet; settings: 96 h, 200 ppm (concentration in well 18 ppm), eggs on artificial diet, egg mortality, larval mortality, growth regulation after 4 days
Protocol: Heliothis virescens (Tobacco Budworm): Eggs (0-24 h old) were placed in 24-well microtiter plate on artificial diet and treated with test solutions at an application rate of 200 ppm (concentration in well 18 ppm) by pipetting. After an incubation period of 4 days, samples were checked for egg mortality, larval mortality, and growth regulation.

Thrips tabaci = Thrips tabaci (onion thrips) sunflower leaf disc test; settings: foliar, 168 h, 200 ppm sprayed on sunflower leaf discs, mixed ages, mortality after 7 days
Protocol: Thrips tabaci (Onion Thrips): Sunflower leaf discs were placed on agar in a 24-well microtiter plate and sprayed with test solutions at an application rate of 200 ppm. After drying, the leaf discs were infested with a thrips population of mixed ages. After an incubation period of 7 days, samples were checked for mortality.

Measured: pest or weed control at 200 ppm

N#Cc1cc(C2=NSC(c3cc(Cl)cc(Cl)c3)(C(F)(F)F)C2)ccc1-n1cncn1 (stereo not drawn) [Compound B1, 5-[5-(3,5-dichlorophenyl)-5-(trifluoromethyl)-4,5-dihydro-isothiazol-3-yl]-2-(1,2,4-triazol-1-yl)benzonitrile]
≥ 80%: all assays above

CSCCNC(=O)c1ccc(C2=NSC(c3cc(Cl)cc(Cl)c3)(C(F)(F)F)C2)cc1C (stereo not drawn) [Compound A26]
≥ 80%: all assays above

Cc1cc(C2=NSC(c3cc(Cl)cc(Cl)c3)(C(F)(F)F)C2)ccc1C(=O)NCCC1OCCO1 (stereo not drawn) [Compound A54]
≥ 80%: all assays above

Cc1cc(C2=NSC(c3cc(Cl)cc(Cl)c3)(C(F)(F)F)C2)ccc1C(=O)NC1(C)CSC1 (stereo not drawn) [Compound A19]
≥ 80%: all assays above

Cc1cc(NC(=O)c2ccc(C3=NSC(c4cc(Cl)cc(Cl)c4)(C(F)(F)F)C3)cc2C)n(C)n1 (stereo not drawn) [Compound A17]
≥ 80%: all assays above

Cc1cc(C2=NSC(c3cc(Cl)cc(Cl)c3)(C(F)(F)F)C2)ccc1C(=O)NC(C)C (stereo not drawn) [Compound A39]
≥ 80%: all assays above

CCO/N=C/NC(=O)c1ccc(C2=NSC(c3cc(Cl)cc(Cl)c3)(C(F)(F)F)C2)cc1C (stereo not drawn) [Compound C2, 4-[5-(3,5-dichlorophenyl)-5-(trifluoromethyl)-4H-isothiazol-3-yl]-N-[(E)-ethoxyiminomethyl]-2-methyl-benzamide]
≥ 80%: all assays above

Cc1cc(C2=NSC(c3cc(Cl)cc(Cl)c3)(C(F)(F)F)C2)ccc1C(=O)NCC1CCCO1 (stereo not drawn) [Compound A09]
≥ 80%: all assays above

Cc1cc(C2=NSC(c3cc(Cl)cc(Cl)c3)(C(F)(F)F)C2)ccc1C(=O)NC1CCSC1 (stereo not drawn) [Compound A27]
≥ 80%: all assays above

CNC(=O)c1ccc(C2=NSC(c3cc(Cl)cc(Cl)c3)(C(F)(F)F)C2)cc1C (stereo not drawn) [Compound A62]
≥ 80%: all assays above

Cc1cc(C2=NSC(c3cc(Cl)cc(Cl)c3)(C(F)(F)F)C2)ccc1C(=O)Nc1ccccc1F (stereo not drawn) [Compound A60]
≥ 80%: all assays above

Cc1cc(C2=NSC(c3cc(Cl)cc(Cl)c3)(C(F)(F)F)C2)ccc1C(=O)NCC(F)(F)F (stereo not drawn) [Compound A03]
≥ 80%: all assays above

Cc1cc(C2=NSC(c3cc(Cl)cc(Cl)c3)(C(F)(F)F)C2)ccc1C(=O)NCc1ccccc1 (stereo not drawn) [Compound A10]
≥ 80%: all assays above

Cc1cc(C2=NSC(c3cc(Cl)c(Cl)c(Cl)c3)(C(F)(F)F)C2)ccc1C(=O)NC1C[S+]([O-])C1 (stereo not drawn) [Compound D3, 2-methyl-N-(1-oxothietan-3-yl)-4-[5-(3,4,5-trichlorophenyl)-5-(trifluoromethyl)-4H-isothiazol-3-yl]benzamide]
≥ 80%: all assays above

Cc1cc(C2=NSC(c3cc(Cl)cc(Cl)c3)(C(F)(F)F)C2)ccc1C(=O)NC1C[S+]([O-])C1 (stereo not drawn) [Compound A21]
≥ 80%: all assays above

Cc1cc(C2=NSC(c3cc(Cl)cc(Cl)c3)(C(F)(F)F)C2)ccc1C(=O)NC1CSC1 (stereo not drawn) [Compound A22, 4-[5-(3,5-Dichloro-phenyl)-5-trifluoromethyl-4,5-dihydro-isothiazol-3-yl]-2-methyl-N-thietan-3-yl-benzamide]
≥ 80%: all assays above

Cc1cc(C2=NSC(c3cc(Cl)cc(Cl)c3)(C(F)(F)F)C2)ccc1C(=O)NCc1ccc(Cl)nc1 (stereo not drawn) [Compound A14]
≥ 80%: all assays above

Cc1cc(C2=NSC(c3cc(Cl)cc(Cl)c3)(C(F)(F)F)C2)ccc1C(=O)Nc1cccc(F)c1 (stereo not drawn) [Compound A15]
≥ 80%: all assays above

N#Cc1cc(C2=NS[C@@](c3cc(Cl)c(Cl)c(Cl)c3)(C(F)(F)F)C2)ccc1-n1cncn1 [Compound B2, 2-(1,2,4-triazol-1-yl)-5-[(5S)-5-(3,4,5-trichlorophenyl)-5-(trifluoromethyl)-4H-isothiazol-3-yl]benzonitrile]
≥ 80%: all assays above

COCCNC(=O)c1ccc(C2=NSC(c3cc(Cl)cc(Cl)c3)(C(F)(F)F)C2)cc1C (stereo not drawn) [Compound A51]
≥ 80%: all assays above

Cc1cc(C2=NSC(c3cc(Cl)cc(Cl)c3)(C(F)(F)F)C2)ccc1C(=O)NCc1ccccc1F (stereo not drawn) [Compound A11]
≥ 80%: all assays above

CCN1OC[C@@H](NC(=O)c2ccc(C3=NS[C@@](c4cc(Cl)cc(Cl)c4)(C(F)(F)F)C3)cc2C)C1=O [Compound A78, 4-[(5S)-5-(3,5-dichlorophenyl)-5-(trifluoromethyl)-4H-isothiazol-3-yl]-N-[(4R)-2-ethyl-3-oxo-isoxazolidin-4-yl]-2-methyl-benzamide]
≥ 80%: all assays above
